Results from paper PMC8725837, “2-Arylquinolines as novel anticancer agents with dual EGFR/FAK kinase inhibitory activity: synthesis, biological evaluation, and molecular modelling insights” (Journal of Enzyme Inhibition and Medicinal Chemistry, 2021).

Key:
[1] = system: MDMBA-231 breast cancer cell line; assay: MTT antiproliferative assay, MDMBA-231; type: cell-based; details: 10 µM, 24 h
Procedure: (§1) At least, three independent experiments were performed.

[2] = system: DLD-1 colorectal cancer cell line; assay: MTT antiproliferative assay, DLD-1; details: for GI% DLD1: 10 µM, 24 h, MTT; for IC50: Homo sapiens, DLD-1, 24 h, read-out: IC50 DLD1 (half maximal growth inhibitory concentration)
[3] = system: HCT-116 colorectal cancer cell line; assay: MTT antiproliferative assay, HCT-116; details: for GI% HCT-116: 10 µM, 24 h, MTT; for IC50: Homo sapiens, HCT-116, 24 h, read-out: IC50 HCT-116 (half maximal growth inhibitory concentration)
VEGFR-1 = target: T1, VEGFR-1 (Homo sapiens, UniProt P17948); assay: Z`-LYTE kinase profiling, VEGFR-1; type: biochemical
T1 construct: purchased Invitrogen/Life Technologies

FRK = target: T2, FRK (Homo sapiens, UniProt P42685); assay: Z`-LYTE kinase profiling, FRK; type: biochemical
T2 construct: purchased Invitrogen/Life Technologies

c-Src = target: T3, c-Src (Homo sapiens, UniProt P12931); assay: Z`-LYTE kinase profiling, c-Src; type: biochemical
T3 construct: purchased Invitrogen/Life Technologies

recombinant human TOP1 = target: T4, recombinant human TOP1 (Homo sapiens, UniProt P11387); assay: Topoisomerase I-mediated DNA cleavage assay; details: tested at 0.1, 1, 10, 100 µM
T4 sequence (P11387 1-765): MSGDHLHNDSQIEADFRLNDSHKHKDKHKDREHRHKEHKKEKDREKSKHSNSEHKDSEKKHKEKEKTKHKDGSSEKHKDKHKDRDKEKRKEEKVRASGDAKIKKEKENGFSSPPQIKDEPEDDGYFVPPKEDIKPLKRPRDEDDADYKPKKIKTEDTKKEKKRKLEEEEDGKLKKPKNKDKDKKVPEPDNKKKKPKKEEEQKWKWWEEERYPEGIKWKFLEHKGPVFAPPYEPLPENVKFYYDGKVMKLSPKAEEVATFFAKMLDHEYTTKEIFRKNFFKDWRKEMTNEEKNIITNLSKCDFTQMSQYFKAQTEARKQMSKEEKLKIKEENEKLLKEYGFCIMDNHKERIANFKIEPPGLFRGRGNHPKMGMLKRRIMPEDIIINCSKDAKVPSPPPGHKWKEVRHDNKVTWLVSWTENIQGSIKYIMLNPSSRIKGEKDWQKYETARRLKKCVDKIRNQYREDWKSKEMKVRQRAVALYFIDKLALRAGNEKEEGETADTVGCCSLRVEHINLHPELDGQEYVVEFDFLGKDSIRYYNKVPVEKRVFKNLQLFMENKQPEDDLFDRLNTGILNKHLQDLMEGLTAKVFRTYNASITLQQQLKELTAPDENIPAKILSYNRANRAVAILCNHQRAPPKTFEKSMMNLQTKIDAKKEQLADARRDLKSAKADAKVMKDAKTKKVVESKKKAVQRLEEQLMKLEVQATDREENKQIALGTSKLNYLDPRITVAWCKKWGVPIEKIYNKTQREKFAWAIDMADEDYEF
Procedure: Radiolabeled DNA was incubated with recombinant human TOP1 in 20 µL reaction buffer (10 mmol/L Tris-HCl, pH 7.5, 50 mmol/L KCl, 5 mmol/L MgCl2, 0.1 mmol/L EDTA, and 15 µg/mL BSA) at 30 °C for 20 min in the presence of the indicated drug concentrations. Reactions were terminated by adding SDS (0.5% final concentration) followed by the addition of two volumes of loading dye (80% formamide, 10 mmol/L sodium hydroxide, 1 mmol/L sodium EDTA, 0.1% xylene cyanol, and 0.1% bromophenol blue). Aliquots of reaction mixtures were subjected to 20% denaturing PAGE. Gels were dried and visualised by using PhosphorImager and Image Quant software (Molecular Dynamics).

IGF-1R = target: T5, IGF-1R (Homo sapiens, UniProt P08069); assay: Z`-LYTE kinase profiling, IGF-1R; type: biochemical
T5 construct: purchased Invitrogen/Life Technologies

BTK = target: T6, BTK (Homo sapiens, UniProt Q06187); assay: Z`-LYTE kinase profiling, BTK; type: biochemical
T6 construct: purchased Invitrogen/Life Technologies

EGFR = EGFR (Homo sapiens, UniProt P00533); assay: Z`-LYTE kinase inhibitory assay, EGFR
[4] = system: MCF-7 breast cancer cell line; assay: MTT antiproliferative assay, MCF-7; type: cell-based; details: 10 µM, 24 h
Procedure: as §1

FAK = FAK (Homo sapiens, UniProt Q05397); assay: Z`-LYTE kinase inhibitory assay, FAK
[5] = system: HeLa cervical cancer cell line; assay: MTT antiproliferative assay, HeLa; type: cell-based; details: 10 µM, 24 h
Procedure: as §1

VEGFR-2 = target: T7, VEGFR-2 (Homo sapiens, UniProt P35968); assay: Z`-LYTE kinase profiling, VEGFR-2; type: biochemical
T7 construct: purchased Invitrogen/Life Technologies

HER-2 = target: T8, HER-2 (Homo sapiens, UniProt P04626); assay: Z`-LYTE kinase profiling, HER-2; type: biochemical
T8 construct: purchased Invitrogen/Life Technologies
T8 sequence (P04626 23-1255): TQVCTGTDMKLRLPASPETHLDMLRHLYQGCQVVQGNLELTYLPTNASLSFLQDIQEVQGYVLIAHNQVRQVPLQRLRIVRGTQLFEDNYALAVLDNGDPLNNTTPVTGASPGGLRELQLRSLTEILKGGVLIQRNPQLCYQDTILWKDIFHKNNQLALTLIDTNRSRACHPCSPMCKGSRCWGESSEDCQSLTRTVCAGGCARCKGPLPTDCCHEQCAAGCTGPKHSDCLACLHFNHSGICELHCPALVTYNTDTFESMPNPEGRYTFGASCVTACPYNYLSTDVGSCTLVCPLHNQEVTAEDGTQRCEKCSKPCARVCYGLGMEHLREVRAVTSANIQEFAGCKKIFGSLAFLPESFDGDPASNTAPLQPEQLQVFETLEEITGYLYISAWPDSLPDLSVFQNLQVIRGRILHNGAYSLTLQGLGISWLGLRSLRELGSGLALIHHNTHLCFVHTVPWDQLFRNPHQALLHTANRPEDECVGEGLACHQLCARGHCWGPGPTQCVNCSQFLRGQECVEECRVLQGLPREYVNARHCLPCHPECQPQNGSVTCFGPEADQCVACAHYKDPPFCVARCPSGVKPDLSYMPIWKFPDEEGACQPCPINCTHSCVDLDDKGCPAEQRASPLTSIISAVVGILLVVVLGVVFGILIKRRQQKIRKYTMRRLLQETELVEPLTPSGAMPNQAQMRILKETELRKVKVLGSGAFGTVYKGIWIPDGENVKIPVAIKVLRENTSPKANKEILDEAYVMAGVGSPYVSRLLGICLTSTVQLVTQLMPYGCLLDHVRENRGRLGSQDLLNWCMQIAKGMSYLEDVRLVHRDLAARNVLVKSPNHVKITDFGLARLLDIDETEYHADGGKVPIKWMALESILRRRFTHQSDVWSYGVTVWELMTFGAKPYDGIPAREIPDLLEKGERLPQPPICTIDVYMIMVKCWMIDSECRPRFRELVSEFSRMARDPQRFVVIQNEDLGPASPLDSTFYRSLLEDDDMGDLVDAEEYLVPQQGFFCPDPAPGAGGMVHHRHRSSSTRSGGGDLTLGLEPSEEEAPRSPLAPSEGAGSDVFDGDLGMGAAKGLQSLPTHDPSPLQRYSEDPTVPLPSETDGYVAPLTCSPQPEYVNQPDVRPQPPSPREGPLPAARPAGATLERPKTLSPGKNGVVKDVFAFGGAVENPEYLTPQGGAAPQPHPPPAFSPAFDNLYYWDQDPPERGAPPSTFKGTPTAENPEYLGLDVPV

T1 sequence (P17948 27-1338): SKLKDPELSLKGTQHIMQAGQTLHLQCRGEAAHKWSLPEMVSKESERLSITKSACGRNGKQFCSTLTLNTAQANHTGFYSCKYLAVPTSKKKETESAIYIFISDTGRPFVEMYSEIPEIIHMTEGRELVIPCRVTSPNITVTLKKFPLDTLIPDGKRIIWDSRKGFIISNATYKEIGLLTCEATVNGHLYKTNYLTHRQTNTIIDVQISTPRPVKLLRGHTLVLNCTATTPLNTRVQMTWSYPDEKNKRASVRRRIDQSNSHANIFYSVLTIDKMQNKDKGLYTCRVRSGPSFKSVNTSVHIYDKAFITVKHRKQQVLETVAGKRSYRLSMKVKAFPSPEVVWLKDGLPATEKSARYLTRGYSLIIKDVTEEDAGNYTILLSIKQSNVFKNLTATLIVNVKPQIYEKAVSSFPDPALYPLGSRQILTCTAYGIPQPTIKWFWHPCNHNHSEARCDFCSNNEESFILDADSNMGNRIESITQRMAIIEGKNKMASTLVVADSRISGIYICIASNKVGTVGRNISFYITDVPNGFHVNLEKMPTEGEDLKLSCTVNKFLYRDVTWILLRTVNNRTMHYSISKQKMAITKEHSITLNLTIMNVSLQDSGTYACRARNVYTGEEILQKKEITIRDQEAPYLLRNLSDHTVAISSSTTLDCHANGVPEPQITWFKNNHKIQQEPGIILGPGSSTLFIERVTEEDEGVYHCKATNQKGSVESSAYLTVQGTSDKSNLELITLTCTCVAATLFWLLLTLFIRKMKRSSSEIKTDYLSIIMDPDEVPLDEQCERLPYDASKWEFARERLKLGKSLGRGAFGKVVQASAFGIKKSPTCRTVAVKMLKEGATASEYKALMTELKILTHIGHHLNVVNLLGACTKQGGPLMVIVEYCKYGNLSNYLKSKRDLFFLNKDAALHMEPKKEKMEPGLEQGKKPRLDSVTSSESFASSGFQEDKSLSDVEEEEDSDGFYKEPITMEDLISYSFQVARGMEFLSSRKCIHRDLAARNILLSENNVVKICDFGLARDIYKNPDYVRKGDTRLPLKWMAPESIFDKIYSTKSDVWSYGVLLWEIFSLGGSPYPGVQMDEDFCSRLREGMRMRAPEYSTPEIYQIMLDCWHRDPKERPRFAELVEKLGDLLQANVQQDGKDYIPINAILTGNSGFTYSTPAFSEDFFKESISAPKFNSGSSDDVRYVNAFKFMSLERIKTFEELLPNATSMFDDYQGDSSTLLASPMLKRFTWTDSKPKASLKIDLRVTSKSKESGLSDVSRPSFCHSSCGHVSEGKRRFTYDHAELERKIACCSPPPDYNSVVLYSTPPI
T2 sequence (P42685 whole entry): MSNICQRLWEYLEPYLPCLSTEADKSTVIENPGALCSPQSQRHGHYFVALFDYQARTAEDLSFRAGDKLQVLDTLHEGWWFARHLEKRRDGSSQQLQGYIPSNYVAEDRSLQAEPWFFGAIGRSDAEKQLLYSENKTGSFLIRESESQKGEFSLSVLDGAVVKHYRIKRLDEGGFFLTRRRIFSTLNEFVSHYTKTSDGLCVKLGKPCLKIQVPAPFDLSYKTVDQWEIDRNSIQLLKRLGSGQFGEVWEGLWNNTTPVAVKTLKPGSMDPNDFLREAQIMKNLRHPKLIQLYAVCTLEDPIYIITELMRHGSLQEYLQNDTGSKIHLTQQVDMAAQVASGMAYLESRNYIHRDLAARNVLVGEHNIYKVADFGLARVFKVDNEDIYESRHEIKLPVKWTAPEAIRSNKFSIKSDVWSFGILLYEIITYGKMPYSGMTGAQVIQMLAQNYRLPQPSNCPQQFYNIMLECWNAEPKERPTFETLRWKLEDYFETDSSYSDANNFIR
T5 sequence (P08069 31-1367): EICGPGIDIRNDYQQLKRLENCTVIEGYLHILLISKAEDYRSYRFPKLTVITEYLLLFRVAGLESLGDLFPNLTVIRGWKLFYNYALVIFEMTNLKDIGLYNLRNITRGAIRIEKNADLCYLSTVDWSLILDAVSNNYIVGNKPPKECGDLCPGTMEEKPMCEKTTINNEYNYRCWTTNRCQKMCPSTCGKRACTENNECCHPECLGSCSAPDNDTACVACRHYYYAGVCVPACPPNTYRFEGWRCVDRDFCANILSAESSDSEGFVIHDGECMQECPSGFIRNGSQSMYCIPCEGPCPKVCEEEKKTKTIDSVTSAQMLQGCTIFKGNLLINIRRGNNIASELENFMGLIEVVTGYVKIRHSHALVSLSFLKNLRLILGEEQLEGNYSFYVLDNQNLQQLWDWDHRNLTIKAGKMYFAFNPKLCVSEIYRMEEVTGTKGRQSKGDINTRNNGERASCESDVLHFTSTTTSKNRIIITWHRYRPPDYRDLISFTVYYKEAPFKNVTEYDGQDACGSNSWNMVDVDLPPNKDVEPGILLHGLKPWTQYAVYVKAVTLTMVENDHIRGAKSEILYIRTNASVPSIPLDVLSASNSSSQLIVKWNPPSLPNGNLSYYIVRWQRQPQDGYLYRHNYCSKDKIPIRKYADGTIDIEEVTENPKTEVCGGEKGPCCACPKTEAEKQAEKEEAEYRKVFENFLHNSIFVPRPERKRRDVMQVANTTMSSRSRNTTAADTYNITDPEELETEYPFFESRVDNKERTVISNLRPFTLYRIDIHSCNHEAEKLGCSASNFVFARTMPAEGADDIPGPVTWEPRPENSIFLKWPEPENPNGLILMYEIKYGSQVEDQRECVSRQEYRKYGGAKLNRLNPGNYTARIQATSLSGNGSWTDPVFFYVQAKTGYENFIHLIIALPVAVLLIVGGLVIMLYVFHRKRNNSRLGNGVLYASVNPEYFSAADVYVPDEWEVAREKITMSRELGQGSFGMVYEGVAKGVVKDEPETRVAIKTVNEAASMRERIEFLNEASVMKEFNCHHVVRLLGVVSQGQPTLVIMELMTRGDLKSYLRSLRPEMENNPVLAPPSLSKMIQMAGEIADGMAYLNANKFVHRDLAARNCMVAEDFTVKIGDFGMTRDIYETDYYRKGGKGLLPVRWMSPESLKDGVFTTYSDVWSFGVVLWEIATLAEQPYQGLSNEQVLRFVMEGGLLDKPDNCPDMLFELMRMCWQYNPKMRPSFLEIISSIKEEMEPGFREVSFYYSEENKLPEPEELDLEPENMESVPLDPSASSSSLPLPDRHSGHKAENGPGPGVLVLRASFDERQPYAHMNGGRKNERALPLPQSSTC
T6 sequence (Q06187 whole entry): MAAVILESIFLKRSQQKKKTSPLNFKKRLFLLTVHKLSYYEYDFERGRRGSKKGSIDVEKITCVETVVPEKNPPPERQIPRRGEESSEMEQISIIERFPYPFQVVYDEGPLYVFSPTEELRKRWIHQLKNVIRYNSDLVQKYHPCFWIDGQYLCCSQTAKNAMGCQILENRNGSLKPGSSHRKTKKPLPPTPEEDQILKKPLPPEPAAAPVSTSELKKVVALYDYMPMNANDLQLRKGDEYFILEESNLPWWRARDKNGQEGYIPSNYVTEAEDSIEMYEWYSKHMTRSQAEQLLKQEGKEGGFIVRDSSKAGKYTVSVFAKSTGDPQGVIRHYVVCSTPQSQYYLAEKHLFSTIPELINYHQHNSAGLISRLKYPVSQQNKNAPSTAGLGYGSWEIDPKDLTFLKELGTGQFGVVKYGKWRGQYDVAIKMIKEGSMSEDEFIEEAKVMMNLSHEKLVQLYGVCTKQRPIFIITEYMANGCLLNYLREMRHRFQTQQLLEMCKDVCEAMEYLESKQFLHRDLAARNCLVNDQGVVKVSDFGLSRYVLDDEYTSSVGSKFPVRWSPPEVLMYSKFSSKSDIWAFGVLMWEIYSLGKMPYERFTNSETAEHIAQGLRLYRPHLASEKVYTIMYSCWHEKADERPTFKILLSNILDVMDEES

Row | Compound | GI% MDMBA-231 [1] [%] | GI% DLD1 [2] [%] | IC50 [2] [µM] | GI% HCT-116 [3] [%] | IC50 [3] [µM] | IC50 (VEGFR-1) [µM] | IC50 (FRK) [µM] | IC50 (c-Src) [µM] | TOP1 inhibitory activity (semiquantitative score relative to 1 µM CPT) (recombinant human TOP1) | IC50 (IGF-1R) [µM] | IC50 (BTK) [µM] | IC50 (EGFR) [µM] | GI% MCF-7 [4] [%] | IC50 (FAK) [µM] | GI% Hela [5] [%] | IC50 (VEGFR-2) [µM] | IC50 (HER-2) [µM] | melting point [°C]
1 | Clc1ccc(-c2cc(OCCCN3CCOCC3)c3cc(Br)ccc3n2)cc1 [16b, 4-(3-((6-bromo-2-(4-chlorophenyl)quinolin-4-yl)oxy)propyl)morpholine] | 45.31 | 55.82 | 8.69 ± 2.64 | 87.61 | 4.22 ± 1.05 | 1.27 | 3.13 | 1.32 | 0 | 3.49 | 2.88 | 0.313 ± 0.0153 | 19.38 | 0.0504 ± 0.00481 | 35.94 | 3.23 | 2.31 | 137 to 139
2 | Fc1ccc(-c2cc(OCCCn3ccnc3)c3cc(Br)ccc3n2)cc1 [16c, 4-(3-(1H-imidazol-1-yl)propoxy)-6-bromo-2-(4-fluorophenyl)quinoline] | 20.11 | 12.25 | > 100 | 18.14 | 88 ± 5.24 | 2.56 | 6.67 | 1.73 | + (+: 25–50% 1 µM CPT) | 6.69 | 5.62 | 0.485 ± 0.0114 | 4.36 | 0.224 ± 0.0105 | 8.67 | 5.1 | 1.61 | 144 to 146
3 | COc1ccc(-c2ccc3nc(-c4ccc(Cl)cc4)cc(OCCCn4ccnc4)c3c2)cc1 [20a, 4-(3-(1H-imidazol-1-yl)propoxy)-2-(4-chlorophenyl)-6-(4-methoxyphenyl)quinoline] | 29.08 | 44.98 | 13.1 ± 3.69 | 36.71 | 24.1 ± 2.46 | 1.35 | 2.62 | 2.9 | 0 | 2.86 | 8.67 | 0.122 ± 0.0094 | 15.23 | 0.0773 ± 0.00437 | 22.06 | 1.25 | 1.01 | 210 to 212
4 | COc1ccc(-c2ccc3nc(-c4ccc(Cl)cc4)cc(OCCCN4CCOCC4)c3c2)cc1 [20b, 4-(3-((2-(4-chlorophenyl)-6-(4-methoxyphenyl)quinolin-4-yl)oxy)propyl)morpholine] | 48.31 | 53.15 | 9.65 ± 2.15 | 71.05 | 7.34 ± 1.82 | 4.74 | 8.71 | 4.21 | 0 | 8.91 | 8.98 | 0.245 ± 0.0123 | 29.37 | 0.0633 ± 0.00325 | 34.02 | 2.3 | 1.65 | 173 to 175
5 | COc1ccc(-c2ccc3nc(-c4ccc(F)cc4)cc(OCCCn4ccnc4)c3c2)cc1 [20c, 4-(3-(1H-imidazol-1-yl)propoxy)-2-(4-fluorophenyl)-6-(4-methoxyphenyl)quinoline] | 32.11 | 41.34 | 16 ± 1.1 | 38.64 | 12.5 ± 3.05 | 1.75 | 1.44 | 9.05 | 0 | 1.88 | 8.67 | 0.362 ± 0.00526 | 76.82 | 0.091 ± 0.00585 | 22.08 | 8.97 | 1.23 | 176 to 178
6 | COc1ccc(-c2ccc3nc(-c4ccc(F)cc4)cc(OCCCN4CCOCC4)c3c2)cc1 [20d, 4-(3-((2-(4-fluorophenyl)-6-(4-methoxyphenyl)quinolin-4-yl)oxy)propyl)morpholine] | 27.05 | 24.65 | 65.3 ± 5.36 | 36.91 | 29.5 ± 4.15 | 0.712 | 0.133 | 0.251 | 0 | 0.0412 | 1.78 | 0.147 ± 0.00837 | 15.34 | 0.125 ± 0.00315 | 11.97 | 0.294 | 1.77 | 168 to 170
7 | Clc1ccc(-c2cc(OCCCn3ccnc3)c3cc(-c4ccco4)ccc3n2)cc1 [20e, 4-(3-(1H-imidazol-1-yl)propoxy)-2-(4-chlorophenyl)-6-(furan-2-yl)quinoline] | 56.29 | 90.65 | 4.46 ± 0.65 | 89.64 | 4.75 ± 1.02 | 0.72 | 0.216 | 0.138 | 0 | 3.01 | 0.271 | 0.0337 ± 0.00102 | 73.61 | 0.0254 ± 0.00348 | 65.73 | 0.243 | 0.0988 | 130 to 132
